23 compounds from patent publication US20170334899A1, “AMINO-SUBSTITUTED ISOTHIAZOLES” (Bayer Pharma Aktiengesellschaft, priority 2014, published 2017) can be followed below.

Holding throughout (format): cell-based
One assay concerns B16F10. The experiment in a line: Proliferation assay (crystal violet), B16F10. As to conditions: Mus musculus, B16-F10, 96 h; B16F10 cells; 4 days incubation; crystal violet staining; read-out: IC50 inhibition of proliferation, B16F10. An outline of the steps:
(§1)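 Seed 1000–5000 cells/well, 10% FCS; 24 h later replace medium and add compound (0.001–10 μM, 0.5% DMSO); incubate 4 d; glutaraldehyde fix, 0.1% crystal violet pH 3.0, elute with 10% acetic acid; A595; 4-parameter IC50.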

The subject of another assay is Caco-2. As to the kind of experiment: Proliferation assay (crystal violet), Caco-2. As to conditions: Homo sapiens, 96 h; Caco-2 cells; 4 days incubation; crystal violet staining; read-out: IC50 inhibition of proliferation, Caco2. The procedure, abridged:
as §1

The next assay deals with DU145. As to the kind of experiment: Proliferation assay (crystal violet), DU145. As to conditions: Homo sapiens, DU-145, 96 h; DU145 cells; 4 days incubation; crystal violet staining; read-out: IC50 inhibition of proliferation, DU145. An outline of the steps: as §1
Assay [1] deals with human cervical tumor cell line HeLa (ATCC CCL-2). As to the kind of experiment: SAC-Formation - Paclitaxel-Induced Assay. As to conditions: Homo sapiens, HeLa, 24 h, HeLa cells, paclitaxel 0.05 μM, test range 0.005 μM-20 μM, read-out: IC50 [mol/l] SAC-Formation - Paclitaxel-Induced Assay. An outline of the steps: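 HeLa cells incubated overnight at 37° C, then given paclitaxel (0.05 μM final) plus test compound (0.005–20 μM, 0.5% DMSO) together for 24 h at 37° C. Fixed cells stained for phospho-histone H3 Ser10 (mitotic cells) and Hoechst 33342 (cell count); imaging-derived mitotic index fitted by four-parameter Hill equation.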

The next assay has as its system HeLa-MaTu-ADR. As to the kind of experiment: Proliferation assay (crystal violet), HeLa-MaTu-ADR. To be noted: 96 h; HeLa-MaTu-ADR cells; 4 days incubation; crystal violet staining; read-out: IC50 inhibition of proliferation, HeLa-MaTu-ADR. An outline of the steps:
as §1

In the next assay the test system is NCI-H460. As to the kind of experiment: Proliferation assay (crystal violet), NCI-H460. To be noted: Homo sapiens, 96 h; NCI-H460 cells; 4 days incubation; crystal violet staining; read-out: IC50 inhibition of proliferation, NCI-H460. The procedure, abridged: as §1

Regarding `Cc1nsc(Nc2ccc(C#N)cn2)c1C(=O)Nc1ccc(OC2CCN(C(=O)OC(C)(C)C)CC2)nc1` [Example 27, tert-Butyl 4-({5-[({5-[(5-cyanopyridin-2-yl)amino]-3-methyl-1,2-thiazol-4-yl}-carbonyl)amino]pyridin-2-yl}oxy)piperidine-1-carboxylate], the IC50 worked out at 610 nM with B16F10; 410 nM in the assay with Caco-2; 680 nM with DU145; 130 nM in assay [1]; 250 nM in the assay with HeLa-MaTu-ADR; 280 nM with NCI-H460.
Turning to `Cc1nsc(Nc2cnc3ccccc3n2)c1C(=O)Nc1ccc(OC2CCN(CC(F)(F)F)CC2)nc1` [Example 21, 3-Methyl-5-(quinoxalin-2-ylamino)-N-(6-{[1-(2,2,2-trifluoroethyl)piperidin-4-yl]oxy}-pyridin-3-yl)-1,2-thiazole-4-carboxamide], the IC50 with B16F10 turned out to be 1400 nM; with Caco-2, 1400 nM; with DU145, 1900 nM; in assay [1], 150 nM; in the assay with HeLa-MaTu-ADR, 880 nM; in the assay with NCI-H460, 750 nM.
In the case of `Cc1nsc(Nc2cnc(C(F)(F)F)cn2)c1C(=O)Nc1ccc(F)c(OCC2CCN(C(CF)CF)C2)c1` (stereo not drawn) [Example 320, N-(3-{[1-(1,3-difluoropropan-2-yl)pyrrolidin-3-yl]methoxy}-4-fluorophenyl)-3-methyl-5-{[5-(trifluoromethyl)pyrazin-2-yl]amino}-1,2-thiazole-4-carboxamide], the IC50 in assay [1] turned out to be 290 nM.
Take `Cc1nsc(Nc2cnc3ccccc3n2)c1C(=O)Nc1cccc(NS(=O)(=O)C2CN(CC(F)F)C2)c1` [Example 286, N-[3-({[1-(2,2-difluoroethyl)azetidin-3-yl]sulfonyl}amino)phenyl]-3-methyl-5-(quinoxalin-2-ylamino)-1,2-thiazole-4-carboxamide]: in assay [1], the IC50 is 6500 nM.
For `Cc1nsc(Nc2cnc(C(F)(F)F)cn2)c1C(=O)Nc1ccc(OC2CCN(C(CF)CF)C2)nc1` (stereo not drawn) [Example 313, N-(6-{[1-(1,3-difluoropropan-2-yl)pyrrolidin-3-yl]oxy}pyridin-3-yl)-3-methyl-5-{[5-(trifluoromethyl)pyrazin-2-yl]amino}-1,2-thiazole-4-carboxamide], the IC50 in assay [1] was 55 nM.
As for `Cc1nsc(Nc2cnc(C(F)(F)F)cn2)c1C(=O)Nc1ccc(F)c(OCCCNCC(F)(F)F)c1` [Example 306, N-(4-fluoro-3-{3-[(2,2,2-trifluoroethyl)amino]propoxy}phenyl)-3-methyl-5-{[5-(trifluoromethyl)pyrazin-2-yl]amino}-1,2-thiazole-4-carboxamide], in assay [1], the IC50 was 95 nM.
On the same count and under the same terms, then `Cc1nsc(Nc2cnc3ccccc3n2)c1C(=O)Nc1cccc(NS(=O)(=O)C2CCN(C(=O)OC(C)(C)C)C2)c1` (stereo not drawn) [Example 290, tert-butyl 3-{[3-({[3-methyl-5-(quinoxalin-2-ylamino)-1,2-thiazol-4-yl]carbonyl}amino)phenyl]sulfamoyl} pyrrolidine-1-carboxylate], with 3600 nM; and `Cc1nsc(Nc2cncc(C(F)(F)F)n2)c1C(=O)Nc1ccc(F)c(OC2CCN(CC(F)(F)F)CC2)c1` [Example 267, N-(4-fluoro-3-{[1-(2,2,2-trifluoroethyl)piperidin-4-yl]oxy}phenyl)-3-methyl-5-{[6-(trifluoromethyl)pyrazin-2-yl]amino}-1,2-thiazole-4-carboxamide], with 20 nM.
The same measure, in the same setting: as for `CCNC(=O)c1cccc(NC(=O)c2c(C)nsc2Nc2cnc3ccccc3n2)c1` [Example 251, N-[3-(ethylcarbamoyl)phenyl]-3-methyl-5-(quinoxalin-2-ylamino)-1,2-thiazole-4-carboxamide], the figure is 3000 nM; as for `Cc1nsc(Nc2cnc(C(F)(F)F)cn2)c1C(=O)Nc1ccc(OC2CCN(CCC(F)(F)F)C2)nc1` (stereo not drawn) [Example 298, 3-methyl-5-{[5-(trifluoromethyl)pyrazin-2-yl]amino}-N-(6-{[1-(3,3,3-trifluoropropyl)pyrrolidin-3-yl]oxy}pyridin-3-yl)-1,2-thiazole-4-carboxamide], 740 nM.
On the same count and under the same terms, then `Cc1nsc(Nc2cnc3ccccc3n2)c1C(=O)Nc1cccc(NS(=O)(=O)C2CN(CCF)C2)c1` [Example 287, N-[3-({[1-(2-fluoroethyl)azetidin-3-yl]sulfonyl}amino)phenyl]-3-methyl-5-(quinoxalin-2-ylamino)-1,2-thiazole-4-carboxamide], with 8200 nM; and `Cc1nsc(Nc2cncc(C(F)(F)F)n2)c1C(=O)Nc1ccc(C(=O)N2CCN(CC(F)F)CC2)cc1` [Example 273, N-(4-{[4-(2,2-difluoroethyl)piperazin-1-yl]carbonyl}phenyl)-3-methyl-5-{[6-(trifluoromethyl)pyrazin-2-yl]amino}-1,2-thiazole-4-carboxamide], with 4800 nM; and `Cc1nsc(Nc2cnc(C(F)(F)F)cn2)c1C(=O)Nc1ccc(F)c(OCC2CCN(CC(F)F)CC2)c1` [Example 308, N-(3-{[1-(2,2-difluoroethyl)piperidin-4-yl]methoxy}-4-fluorophenyl)-3-methyl-5-{[5-(trifluoromethyl)pyrazin-2-yl]amino}-1,2-thiazole-4-carboxamide], with 51 nM.
With `Cc1nsc(Nc2cnc3ccccc3n2)c1C(=O)Nc1cccc(NS(=O)(=O)C2CCCN(C(=O)OCc3ccccc3)C2)c1` (stereo not drawn) [Example 291, benzyl 3-{[3-({[3-methyl-5-(quinoxalin-2-ylamino)-1,2-thiazol-4-yl]carbonyl}amino)phenyl]sulfamoyl} piperidine-1-carboxylate], the IC50 in assay [1] is 4800 nM.
`Cc1nsc(Nc2cc(C#N)ccn2)c1C(=O)Nc1ccc(OC2CCNCC2)nc1` [Example 24, 5-[(4-Cyanopyridin-2-yl)amino]-3-methyl-N-[6-(piperidin-4-yloxy)pyridin-3-yl]-1,2-thiazole-4-carboxamide]: the IC50 in assay [1] was 20000 nM.
With `Cc1nsc(Nc2cnc(C(F)(F)F)cn2)c1C(=O)Nc1ccc(F)c(OCC2CCN(CCF)C2)c1` (stereo not drawn) [Example 317, N-(4-fluoro-3-{[1-(2-fluoroethyl)pyrrolidin-3-yl]methoxy}phenyl)-3-methyl-5-{[5-(trifluoromethyl)pyrazin-2-yl]amino}-1,2-thiazole-4-carboxamide], in assay [1], the IC50 came out at 610 nM.
For `Cc1nsc(Nc2cnc(C(F)(F)F)cn2)c1C(=O)Nc1ccc(F)c(OC2CCN(CCF)CC2)c1` [Example 266, N-(4-fluoro-3-{[1-(2-fluoroethyl)piperidin-4-yl]oxy}phenyl)-3-methyl-5-{[5-(trifluoromethyl)pyrazin-2-yl]amino}-1,2-thiazole-4-carboxamide], the IC50 in assay [1] was 160 nM.
Turning to `Cc1nsc(Nc2cnc(C(F)(F)F)cn2)c1C(=O)Nc1ccc(F)c(OCC2CCN(CC(F)F)C2)c1` (stereo not drawn) [Example 316, N-(3-{[1-(2,2-difluoroethyl)pyrrolidin-3-yl]methoxy}-4-fluorophenyl)-3-methyl-5-{[5-(trifluoromethyl)pyrazin-2-yl]amino}-1,2-thiazole-4-carboxamide], the IC50 in assay [1] was determined as 45 nM.
Still for that read-out and setting: as for `Cc1nsc(Nc2cnc(C(F)(F)F)cn2)c1C(=O)Nc1cccc(NC(=O)OC(C)(C)C)c1` [Example 284, 3-tert-butyl (3-{[(3-methyl-5-{[5-(trifluoromethyl)pyrazin-2-yl]amino}-1,2-thiazol-4-yl)carbonyl]amino}phenyl)carbamate], the figure is 120 nM; as for `Cc1nsc(Nc2cnc(C(F)(F)F)cn2)c1C(=O)Nc1ccc(F)c(OCCCNCCC(F)(F)F)c1` [Example 307, N-(4-fluoro-3-{3-[(3,3,3-trifluoropropyl)amino]propoxy}phenyl)-3-methyl-5-{[5-(trifluoromethyl)pyrazin-2-yl]amino}-1,2-thiazole-4-carboxamide], 380 nM.
`Cc1nsc(Nc2cnc(C(F)(F)F)cn2)c1C(=O)Nc1ccc(OCCCNCC(F)(F)F)nc1` [Example 292, 3-methyl-N-(6-{3-[(2,2,2-trifluoroethyl)amino]propoxy}pyridin-3-yl)-5-{[5-(trifluoromethyl)pyrazin-2-yl]amino}-1,2-thiazole-4-carboxamide]: in assay [1], the IC50 was 420 nM.
Still for that read-out and setting: as for `Cc1nsc(Nc2cncc(C(F)(F)F)n2)c1C(=O)Nc1ccc(C(=O)NC2CN(CC(F)(F)F)C2)cc1` [Example 280, 3-methyl-N-(4-{[1-(2,2,2-trifluoroethyl)azetidin-3-yl]carbamoyl}phenyl)-5-{[6-(trifluoromethyl)pyrazin-2-yl]amino}-1,2-thiazole-4-carboxamide], the figure is 3700 nM.
For the compound `Cc1nsc(Nc2cc(C#N)ccn2)c1C(=O)Nc1cccc(C(=O)NC(C)C)c1` [Example 254, 5-[(4-cyanopyridin-2-yl)amino]-N-[3-(isopropylcarbamoyl)phenyl]-3-methyl-1,2-thiazole-4-carboxamide], the IC50 in assay [1] was 2300 nM.
